Results published in publication PMC8047011, “Enantiomers of 2-methylglutamate and 2-methylglutamine selectively impact mouse brain metabolism and behavior” (Scientific Reports, 2021).

Legend:
[1] = test system: mouse cerebral synaptosomes; experiment: Synaptosomal neurotransmitter uptake assay; assay type: cell-based; details: 10 μM substrate; for Transport into synaptosomes: 37 °C
Protocol: Mouse cerebral synaptosomes were prepared according to published methods. See Supplementary Methods for details. 500 μL aliquots of the synaptosome suspension were transferred to pre-chilled microcentrifuge tubes for experiments. Centrifugations were at 8000g for 4 min at 4 °C, unless stated otherwise, and all samples were stored at − 80 °C.
To each tube, 5 μL of a test compound solution (final concentration 10 μM) in Buffer KRP or Buffer KRP alone were added. Samples were incubated at 4 °C or 37 °C for 1, 10, or 30 min and then immediately centrifuged and washed twice by resuspension–centrifugation with Buffer S (0.5 mL). Resulting pellets were resuspended in 170 μL of 0.1% aqueous formic acid and mixed with 330 μL of ACN.
Buffer S (4 mL, × 1) and Buffer KRP (2 mL, × 3). The resulting pellet was resuspended in 3 mL of Buffer KRP and filtered on Ultrafree-CL 5 μm PVDF centrifugal device (1,000g for 4 min at 4 °C). The filtrate was diluted to 15 mL with ice cold Buffer KRP and kept on ice. The synaptosome preparation was used immediately in the following experiments.
Synaptosomal neurotransmitter uptake assay
96-well plate experiments: 250 μL aliquots of the synaptosome suspension were transferred to two 0.8-mL 96 well plates, one on ice (0 °C samples only) and one in a thermoblock (37 °C samples only), and equilibrated for 10 min. 5 μL of a test compound (0.5 mM; final concentration: 10 μM) in Buffer KRP or Buffer KRP blank were added 10, 20 or 30 min before the incubation termination. “0 min” samples were prepared by placing the test compound solution in a separate pre-chilled V-shape bottom 2-mL 96 well plate; at the end of incubation 200 μL aliquots of all samples were transferred to the 2-mL 96 well plate and centrifuged (2,500g for 15 min at 4 °C) immediately. The resulting pellets were rinsed with Buffer KRP, followed by centrifugation, twice, then resuspended in 200 μL of 60% ACN containing 2.5 μM Glu-d5 as internal standard and stored at –80 °C until analysis. […]

[2] = target: human glutamine synthetase (Homo sapiens, UniProt P15104); experiment: Catalysis of 2MeGlu C5-amidation by human glutamine synthetase; assay type: biochemical; details: 10 mM substrate, 5 ng/mL enzyme, ATP, NH4Cl
human glutamine synthetase, sequence (P15104 whole entry): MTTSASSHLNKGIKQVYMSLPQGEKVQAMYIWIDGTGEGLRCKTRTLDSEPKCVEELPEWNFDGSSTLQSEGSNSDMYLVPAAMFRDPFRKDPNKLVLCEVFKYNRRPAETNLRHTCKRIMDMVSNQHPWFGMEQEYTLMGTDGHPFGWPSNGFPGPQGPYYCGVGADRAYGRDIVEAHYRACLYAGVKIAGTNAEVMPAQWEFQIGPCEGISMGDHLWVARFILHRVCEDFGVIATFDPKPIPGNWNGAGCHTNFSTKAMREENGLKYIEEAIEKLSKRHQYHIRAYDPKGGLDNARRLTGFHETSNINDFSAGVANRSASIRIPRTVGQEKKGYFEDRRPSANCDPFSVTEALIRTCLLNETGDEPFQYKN
Protocol: The procedure was adapted from an existing protocol. To a reaction mixture in a 1.5 mL microcentrifuge tube containing 10 mM substrate, 10 mM ATP, 20 mM MgCl2, 40 mM NH4Cl, 25 mM 2-mercaptoethanol in 100 mM imidazole–HCl buffer pH 7.0, recombinant human glutamine synthetase (final concentration: 5 ng/mL) was added. The tubes were incubated in a preheated thermomixer at 37 °C and shaken at 600 rpm (30 s on, 30 s off). 5 μL aliquots were collected in triplicate every 5 min and immediately diluted with 195 μL of cold 60% ACN containing 10 μM Glu-d5 and Gln-d5 as internal standards in a 96 well plate. After collecting all samples, 200 μL of ACN was added to all wells and the plate was shaken at 1000 rpm for 5 min at room temperature, and then stored at − 80 °C until analysis.

[3] = test system: C57Bl/6 mice; assay type: in vivo; details: for Distance moved in the novel cage: single dose 100, 300, or 900 mg/kg IP, dose- and time-dependent, P < 0.001
Protocol: See Supplementary Methods for details.
The lysate was centrifuged (2,500g for 15 min at 4 °C) and the supernatant was assayed using Pierce BCA Protein Assay Kit (23225) using BioTek Epoch plate spectrophotometer by recording absorbance at 562 nm.
Two or three 10 μL aliquots of the homogenate were transferred to a 96 well plate and extracted with 190 μL of 60% acetonitrile in water containing 10 μM GABA-d6 or 10 μM Glu-d5 and Gln-d5 as internal standards. 40 μL aliquots of the extracts were then diluted with 120 μL of acetonitrile and prepared for LC-MS/MS analysis. Brain and serum half-lives were calculated using the ‘PKNCA’ package for R. Endogenous levels of Glu, Gln and GABA were determined in the brains of mice used in the pharmacokinetics experiment. MRM transitions specific for Glu, Gln and GABA were monitored simultaneously.
In vivo animal studies; Maximum Tolerated Dose (MTD) and behavioral studies […]
000664) were group-housed in a Stanford University animal facility with 12:12 hour light/dark cycle ([…]) and had free access to water and food. All behavioral tests were conducted during the animal dark-cycle. […]
Novel Cage Observation: The mouse was dosed and immediately placed in the center of a clean, Innovive disposable rat cage with bedding (dimensions: 17"L x 13.4"W x 7.8"H) and allowed to move freely while being tracked automatically. Mice were monitored with Ethovision XT tracking software for the distance moved and average velocity during the 60-minute trial. […]
Hot plate test: Hot Plate apparatus (IITC Inc. Model 39) was set to 55°C± 0.2. […] Latency time was recorded when hind paw licking or jumping off first occurred.
SHIRPA: The SHIRPA preliminary screen designed by Rogers et al. (1997) was modified and used to assess the general health and behavioral traits of the mice for the initial five minutes after drug administration. […] The test began by placing the mouse in the clear plastic viewing jar for 60 seconds, and the behavioral parameters were monitored and recorded. […]
Behavioral parameters monitored were according to Portmann et al. (2014). […]

Structure (SMILES)	Transport into synaptosomes [1]	Substrate for glutamine synthetase (GS) [2]	Survival after single dose ([3]; male, C57Bl/6, mouse, in vivo)	Distance moved in the novel cage [3]	Synaptosomal uptake rate relative to the R enantiomer [1]
C[C@@](N)(CCC(=O)O)C(=O)O [(R)-2MeGlu, (R)-2-methylglutamic acid]	transported into synaptosomes	not a substrate for GS	Only one mouse died 10 days after 900 mg/kg	significantly decreased	
C[C@](N)(CCC(=O)O)C(=O)O [(S)-2MeGlu, (S)-2-methylglutamic acid]	transported into synaptosomes	is a substrate for GS		significantly decreased	approximately threefold faster
